We go through 39 compounds from patent US12528818B2, “Compositions and methods for inhibition of RAS” (Leidos Biomedical Research, Inc., priority 2021, dated 2026).

The structures appear in SMILES notation. pIC50: −log10 of the molar value.

One test relates to pERK in NCI-H358 cells. The test can be described thus: Cell-based pERK HTRF assay (pERK inhibition in H358 cells). Conditions: Homo sapiens, NCI-H358, 0.5 h, pERK inhibition IC50, NCI-H358 cells, 30 min incubation; read-out: PERK in H358 cell. In general terms: Time-resolved FRET reads energy transfer from a long-lived donor to a nearby acceptor.
As to `C=CC(=O)N1C[C@H](C)N(c2nc(OC[C@@]34CCCN3C[C@H](F)C4)nc3c(F)c(-c4ccc(F)c5sc(N)c(C#N)c45)c(C(F)(F)F)cc23)C[C@@H]1C` [Compound 349], the pIC50 is greater than 7.00.

As to `C=CC(=O)N1C[C@@H](F)[C@@H](N(C)c2nc(OC[C@@]34CCCN3C[C@H](F)C4)nc3cc(-c4ccc(F)c5sc(N)nc45)c(C(F)(F)F)cc23)C1` [Compound 317], the pIC50 was greater than 7.00.

On to `C=CC(=O)N1CCC(N(C)c2nc(OC[C@]34CCCN3C[C@H](F)C4)nc3c(F)c(-c4ccc(F)c5sc(N)c(C#N)c45)c(C(F)(F)F)cc23)[C@H]1C` (stereo partly drawn) [Compound 477], for which the pIC50 was greater than 7.00.

On to `CC#CC(=O)N1CCN(c2nc(OC[C@@H]3CC(F)(F)CN3C)nc3c(F)c(-c4ccc(F)c5sc(N)nc45)c(C(F)(F)F)cc23)CC1` [Compound 132], for which the pIC50 was less than 6.00.

Consider `CC#CC(=O)N1CCN(c2nc(OCC34CCCN3CCC4)nc3c(F)c(-c4ccc(F)c5sc(N)nc45)c(Cl)cc23)CC1` [Compound 133], for which the pIC50 is less than 6.00.

Take `C=CC(=O)N1CC[C@H](N(C)c2nc(OC[C@@]34CCCN3C[C@H](F)C4)nc3c(F)c(-c4ccc(F)c5sc(N)nc45)c(Cl)cc23)C1` [Compound 185]: the pIC50 was 6.00 to 7.00.

As to `C=CC(=O)N1C[C@H](C)N(c2nc(OC[C@@H]3CCCN3C)nc3c(F)c(-c4ccc(F)c5sc(N)c(C#N)c45)c(C(F)(F)F)cc23)C[C@H]1C` (single isomer, unassigned) [Compound 458], the pIC50 was greater than 7.00.

In the case of `C=CC(=O)N1C[C@H](C)N(c2nc(OC[C@@H]3C[C@@H](OC)CN3C)nc3c(F)c(-c4ccc(F)c5sc(N)c(C#N)c45)c(C(F)(F)F)cc23)C[C@H]1C` [Compound 408], the pIC50 was greater than 7.00.

For the compound `N#CN1CC(Nc2nc(OCC34CCCN3CCC4)nc3c(F)c(-c4ccc(F)c5sc(N)nc45)c(Cl)cc23)C1` [Compound 58], the pIC50 was 6.00 to 7.00.

Consider `C=CC(=O)N1CCC(N(CC)c2nc(OC[C@@H]3C[C@@H](F)CN3C)nc3c(F)c(-c4ccc(F)c5sc(N)c(C#N)c45)c(C(F)(F)F)cc23)[C@H]1COC` (stereo partly drawn) [Compound 453], for which the pIC50 is greater than 7.00.

As for `C=CC(=O)N1C[C@@H](F)[C@@H](N(CC)c2nc(OC[C@@]34CCCN3C[C@H](F)C4)nc3cc(-c4ccc(F)c5sc(N)c(C#N)c45)c(Cl)cc23)C1` [Compound 370], the pIC50 was greater than 7.00.

On to `C=CC(=O)N1C[C@H](N(C)c2nc(OC[C@@]34CCCN3C[C@H](F)C4)nc3c(F)c(-c4ccc(F)c5sc(N)nc45)c(C(F)(F)F)cc23)C(C)(C)C1` [Compound 301], for which the pIC50 was greater than 7.00.

`C=CC(=O)N1CC[C@@H](N(C)c2nc(OC[C@@]34CCCN3C[C@H](F)C4)nc3c(F)c(-c4ccc(F)c5sc(N)c(C#N)c45)c(C(F)(F)F)cc23)[C@H]1COC` [Compound 401]: the pIC50 is greater than 7.00.

Consider `C=CC(=O)N1CCC(N(CC)c2nc(OC[C@@H]3C[C@@H](F)CN3C)nc3cc(-c4ccc(F)c5sc(N)c(C#N)c45)c(C#N)cc23)[C@H]1COC` (stereo partly drawn) [Compound 471], for which the pIC50 was 6.00 to 7.00.

Take `C=CC(=O)N1[C@@H](C)CN(c2nc(OC[C@@]34CCCN3C[C@H](OC)C4)nc3c(F)c(-c4ccc(F)c5sc(N)c(C#N)c45)c(C(F)(F)F)cc23)C[C@@H]1C` (atropisomer, axis not shown) [Compound 364]: the pIC50 is greater than 7.00.

In the case of `C=CC(=O)N1CCC(N(CC)c2nc(OC[C@@H]3CC4(CC4)CN3C)nc3c(F)c(-c4ccc(F)c5sc(N)c(C#N)c45)c(C(F)(F)F)cc23)[C@H]1C` (stereo partly drawn) [Compound 405], the pIC50 is greater than 7.00.

`C=CC(=O)N1C[C@H](C)N(c2nc(OC[C@]3(C)CCCN3C)nc3c(F)c(-c4ccc(F)c5sc(N)c(C#N)c45)c(C(F)(F)F)cc23)C[C@H]1C` [Compound 447, 4-(4-((2S,5R)-4-acryloyl-2,5-dimethylpiperazin-1-yl)-2-(((S)-1,2-dimethylpyrrolidin-2-yl)methoxy)-8-fluoro-6-(trifluoromethyl)quinazolin-7-yl)-2-amino-7-fluorobenzo[b]thiophene-3-carbonitrile]: the pIC50 is greater than 7.00.

For the compound `C=CC(=O)N1CCC(N(C)c2nc(OC[C@@H]3CCCN3C)nc3c(F)c(-c4ccc(F)c5sc(N)c(C#N)c45)c(C(F)(F)F)cc23)C1COC` (stereo partly drawn) [Compound 426, 4-(4-((1-acryloyl-2-(methoxymethyl)pyrrolidin-3-yl)(methyl)amino)-8-fluoro-2-(((S)-1-methylpyrrolidin-2-yl)methoxy)-6-(trifluoromethyl)quinazolin-7-yl)-2-amino-7-fluorobenzo[b]thiophene-3-carbonitrile], the pIC50 is greater than 7.00.

Take `C=CC(=O)N1CC[C@@H](N(C)c2nc(OC[C@@]34CCCN3C[C@H](F)C4)nc3c(F)c(-c4ccc(F)c5sc(N)nc45)c(Cl)cc23)C1` [Compound 195, 1-((3R)-3-((7-(2-amino-7-fluorobenzo[d]thiazol-4-yl)-6-chloro-8-fluoro-2-(((2R,7aS)-2-fluorotetrahydro-1H-pyrrolizin-7a(5H)-yl)methoxy)quinazolin-4-yl)(methyl)amino)pyrrolidin-1-yl)prop-2-en-1-one]: the pIC50 is greater than 7.00.

Turning to `C=CC(=O)N1CC(Nc2nc(OCC34CCCN3CCC4)nc3c(F)c(-c4ccc(F)c5sc(N)nc45)c(Cl)cc23)C1` [Compound 49, 1-(3-((7-(2-amino-7-fluorobenzo[d]thiazol-4-yl)-6-chloro-8-fluoro-2-((tetrahydro-1H-pyrrolizin-7a(5H)-yl)methoxy)quinazolin-4-yl)amino)azetidin-1-yl)prop-2-en-1-one], the pIC50 was less than 6.00.

Consider `C=CC(=O)N1CCC(N(C)c2nc(OC[C@@H]3CCCN3CC)nc3c(F)c(-c4ccc(F)c5sc(N)c(C#N)c45)c(Cl)cc23)[C@H]1C` (stereo partly drawn) [Compound 464], for which the pIC50 is greater than 7.00.

For the compound `C=CC(=O)N1CCN(c2nc(OC[C@@]34CCCN3C[C@H](F)C4)nc3c(F)c(-c4ccc(F)c5sc(N)c(C#N)c45)c(C(F)(F)F)cc23)C[C@H]1C` [Compound 318], the pIC50 was greater than 7.00.

`C=CC(=O)N1CCN(c2ncnc3c(F)c(-c4ccc(F)c5sc(N)nc45)c(CC#N)cc23)CC1` [Compound 72]: the pIC50 is less than 6.00.

Take `C=CC(=O)N1CCN(c2nc(OC[C@@]34CCCN3C[C@@H](F)C4)nc3c(F)c(-c4ccc(F)c5sc(N)nc45)c(C(F)(F)F)cc23)[C@@H](C)C1` [Compound 218]: the pIC50 is greater than 7.00.

Turning to `C=CC(=O)N1CCC(N(C)c2nc(OC[C@@H]3CCCN3C)nc3cc(-c4ccc(F)c5sc(N)c(C#N)c45)c(F)cc23)[C@H]1C` (stereo partly drawn) [Compound 417], the pIC50 was 6.00 to 7.00.

With `C=CC(=O)N1CC(N(C)c2nc(OC[C@@]34CCCN3C[C@H](F)C4)nc3c(F)c(-c4ccc(F)c5sc(N)nc45)c(Cl)cc23)C1` [Compound 247], the pIC50 is greater than 7.00.

For the compound `C=CC(=O)N1C[C@H](C)N(c2nc(OC[C@@]34CCCN3C[C@H](OC)C4)nc3c(F)c(-c4ccc(F)c5sc(N)nc45)c(C(F)(F)F)cc23)C[C@H]1C` (atropisomer, axis not shown) [Compound 289], the pIC50 was greater than 7.00.

Take `C=CC(=O)N1C[C@@H](F)[C@@H](N(C)c2nc(OCC34CCCN3CCC4)nc3c(F)c(-c4ccc(F)c5sc(N)c(C#N)c45)c(C(F)(F)F)cc23)C1` [Compound 374]: the pIC50 is greater than 7.00.

On to `C=CC(=O)N1CCN(c2nc(OC[C@@]34CCCN3C[C@H](F)C4)nc3c(F)c(-c4ccc(F)c5sc(N)nc45)c(C(F)(F)F)cc23)[C@@H](C)C1` [Compound 189], for which the pIC50 was greater than 7.00.

Consider `C=CC(=O)N1CCC(N(CC)c2nc(OC[C@@]34CCCN3C[C@H](F)C4)nc3c(C#N)c(-c4ccc(F)c5sc(N)c(C#N)c45)c(Cl)cc23)[C@H]1C` (stereo partly drawn) [Compound 411], for which the pIC50 was greater than 7.00.

In the case of `C=CC(=O)N1CCN(c2nc(OC[C@]34CCCN3C[C@H](F)C4)nc3c(F)c(-c4ccc(F)c5sc(N)nc45)c(C(F)(F)F)cc23)C[C@@H]1C` [Compound 165], the pIC50 was greater than 7.00.

As for `CC#CC(=O)N1CC(Nc2nc(OC[C@@H]3CCCN3C)nc3c(F)c(-c4ccc(F)c5sc(N)nc45)c(Cl)cc23)C1` [Compound 92, 1-[3-[[7-(2-amino-7-fluoro-1,3-benzothiazol-4-yl)-6-chloro-8-fluoro-2-[[(2S)-1-methylpyrrolidin-2-yl]methoxy]quinazolin-4-yl]amino]azetidin-1-yl]but-2-yn-1-one], the pIC50 is less than 6.00.

On to `C=CC(=O)N1CCN(c2nc(OCC34CCCN3CCC4)nc3c(F)c(-c4ccc(F)c5sc(N)nc45)c(C(F)(F)F)cc23)CC1` [Compound 80, 1-(4-(7-(2-amino-7-fluorobenzo[d]thiazol-4-yl)-8-fluoro-2-((tetrahydro-1H-pyrrolizin-7a(5H)-yl)methoxy)-6-(trifluoromethyl)quinazolin-4-yl)piperazin-1-yl)prop-2-en-1-one], for which the pIC50 was greater than 7.00.

Consider `C=CC(=O)N1C[C@@H](F)[C@@H](N(C)c2nc(OC[C@@]34CCCN3C[C@H](F)C4)nc3c(F)c(-c4ccc(F)c5sc(N)c(C#N)c45)c(Cl)cc23)C1` [Compound 365], for which the pIC50 is greater than 7.00.

For `C=CC(=O)N1C[C@H](C)N(c2nc(OC)nc3c(F)c(-c4ccc(F)c5sc(N)c(C#N)c45)c(C(F)(F)F)cc23)C[C@H]1C` [Compound 385], the pIC50 was greater than 7.00.

The test is the same for the next values; noted with them: pERK inhibition IC50, NCI-H358 cells, 30 min incubation; read-out: PERK in H358 cell.
For the compound `C=CC(=O)N1CC[C@@H](N(C)c2nc(OC[C@@H]3C[C@@H](F)CN3C)nc3c(F)c(-c4ccc(F)c5sc(N)nc45)c(C(F)(F)F)cc23)C1` (atropisomer, axis not shown) [Compound 232], the pIC50 is 6.00 to 7.00.

As to `C=CC(=O)N1CC[C@@H](N(C)c2nc(OC[C@@]34CCCN3C[C@H](F)C4)nc3c(F)c(-c4ccc(F)c5sc(N)c(C#N)c45)c(C(F)(F)F)cc23)[C@H]1C` (single isomer, unassigned) [Compound 435], the pIC50 was less than 6.00.

Take `C=CC(=O)N1C[C@H](C)N(c2nc(OC[C@@]34CCCN3C[C@H](F)C4)nc3c(F)c(-c4ccc(F)c5sc(N)c(C#N)c45)c(C(F)(F)F)cc23)C[C@H]1C` (single isomer, unassigned) [Compound 314]: the pIC50 is 6.00 to 7.00.

For `C=CC(=O)N1C[C@H](N(C)c2ncnc3c(F)c(-c4ccc(F)c5sc(N)nc45)c(C(F)(F)F)cc23)C2(CC2)C1` (atropisomer, axis not shown) [Compound 264], the pIC50 was less than 6.00.
